According to patent US8247211B2, “Glycopeptide antibiotics” (American Cyanamid Company, priority 2001, dated 2012):

Columns and labels:
Assay in all cases: In vitro antibacterial evaluation: minimum inhibitory concentration (MIC), broth dilution method
Format in all cases: cell-based
Details in all cases: broth dilution, 18 hours at 35° C.
Enterococcus sp. = test system: Enterococcus sp.
Procedure, shortened: (§1)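 Following NCCLS approved standard M7-A2, compounds are serially diluted from 64 to 0.06 μg/mL in Muller-Hinton II […] and inoculated at 5×10^5 CFU/mL; the MIC is the minimum concentration at which growth is inhibited.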

Staphylococcus sp. = test system: Staphylococcus sp.
Procedure, shortened: as §1

Streptococcus sp. = test system: Streptococcus sp.
Procedure, shortened: as §1

Escherichia coli = test system: Escherichia coli

CC(c1ccccc1)C1NC(=O)CNC(=O)C(CO)NC(=O)C(C(O)C2CNC(=N)N2C2OC(CO)C(O)C(O)C2O)NC(=O)C(C(O)C2CNC(=N)N2)NC(=O)C(Cc2ccc3oc(SCC(=O)c4ccc(Cl)cc4)nc3c2)NC1=O (centres unmarked) [Example 49]
16 µg/mL: MIC Enterococcus faecalis (ATCC 29212) (Enterococcus sp.; Enterococcus faecalis (ATCC 29212)) | MIC Enterococcus faecalis (GC 2242) (Enterococcus sp.; Enterococcus faecalis (GC 2242)) | MIC Enterococcus faecalis (GC 2691) (Enterococcus sp.; Enterococcus faecalis (GC 2691)) | MIC Enterococcus faecalis (GC 4554) (Enterococcus sp.; Enterococcus faecalis (GC 4554)) | MIC Enterococcus faecalis (GC 6189) (Enterococcus sp.; Enterococcus faecalis (GC 6189)) | MIC Enterococcus faecalis (ATCC 29212) (Enterococcus sp.) | MIC Enterococcus faecalis (GC 2242) (Enterococcus sp.) | MIC Enterococcus faecalis (GC 2691) (Enterococcus sp.) | MIC Enterococcus faecalis (GC 4554) (Enterococcus sp.) | MIC Enterococcus faecalis (GC 6189) (Enterococcus sp.) | MIC Escherichia coli (ATCC 25922) (Escherichia coli)
8 µg/mL: MIC Enterococcus faecium (GC 2243) (Enterococcus sp.; Enterococcus faecium (GC 2243)) | MIC Enterococcus faecium (GC 4556) (Enterococcus sp.; Enterococcus faecium (GC 4556)) | MIC Enterococcus faecium (GC 2243) (Enterococcus sp.) | MIC Enterococcus faecium (GC 4556) (Enterococcus sp.) | MIC Streptococcus pneumoniae (ATCC 6301) (Streptococcus sp.; Streptococcus pneumoniae (ATCC 6301)) | MIC Streptococcus pneumoniae (GC 1894) (Streptococcus sp.; Streptococcus pneumoniae (GC 1894)) | MIC Streptococcus pneumoniae (GC 4565) (Streptococcus sp.; Streptococcus pneumoniae (GC 4565)) | MIC Streptococcus pneumoniae (ATCC 6301) (Streptococcus sp.) | MIC Streptococcus pneumoniae (GC 1894) (Streptococcus sp.) | MIC Streptococcus pneumoniae (GC 4565) (Streptococcus sp.) | MIC Escherichia coli (GC 4559) (Escherichia coli)
4 µg/mL: MIC Enterococcus avium (GC 4558) (Enterococcus sp.; Enterococcus avium (GC 4558)) | MIC Enterococcus faecalis (GC 4553) (Enterococcus sp.; Enterococcus faecalis (GC 4553)) | MIC Enterococcus avium (GC 4558) (Enterococcus sp.) | MIC Enterococcus faecalis (GC 4553) (Enterococcus sp.) | MIC Coagulase Negative Staphylococcus (GC 4547) (Staphylococcus sp.) | MIC Coagulase Negative Staphylococcus (GC 4551) (Staphylococcus sp.) | MIC Streptococcus agalactiae (GC 4564) (Streptococcus sp.; Streptococcus agalactiae (GC 4564)) | MIC Streptococcus agalactiae (GC 4564) (Streptococcus sp.) | MIC Escherichia coli (GC 4560) (Escherichia coli)
32 µg/mL: MIC Enterococcus faecalis (GC 3059) (Enterococcus sp.; Enterococcus faecalis (GC 3059)) | MIC Enterococcus faecalis (GC 3059) (Enterococcus sp.)
1 µg/mL: MIC Coagulase Negative Staphylococcus (GC 4549) (Staphylococcus sp.) | MIC Staphylococcus haemolyticus (GC 4546) (Staphylococcus sp.)
2 µg/mL: MIC Enterococcus faecalis (GC 4552) (Enterococcus sp.; Enterococcus faecalis (GC 4552)) | MIC Enterococcus faecium (GC 4557) (Enterococcus sp.; Enterococcus faecium (GC 4557)) | MIC Enterococcus faecalis (GC 4552) (Enterococcus sp.) | MIC Enterococcus faecium (GC 4557) (Enterococcus sp.) | MIC Coagulase Negative Staphylococcus (GC 4548) (Staphylococcus sp.) | MIC Staphylococcus aureus SMITH (GC 4543) (Staphylococcus sp.) | MIC Staphylococcus aureus-SMITH (GC 4543) (Staphylococcus sp.; strain SMITH GC 4543) | MIC Streptococcus pyogenes (GC 4563) (Streptococcus sp.; Streptococcus pyogenes (GC 4563)) | MIC Streptococcus pyogenes (GC 4563) (Streptococcus sp.)
